Patent US10363239B2, “Method for inhibiting growth of cancer cells” (Pain Therapeutics, Inc., priority 2013, dated 2019)
Where two headings read alike, the source gives them in different places.

Tests used:
[1] = test system: mu opiate receptor (MOR); experiment: MOR agonist activity using [35S]GTPγS binding assay in striatal membranes; type: biochemical; details: for MOR agonist activity ([35S]GTPγS binding), FLNA-Binding Compound as Agonist 0.1 μM: 0.1 μM compound; for % DAMGO (0.1 μM): 0.1 μM compound relative to DAMGO; for MOR agonist activity ([35S]GTPγS binding), FLNA-Binding Compound as Agonist 1 μM: 1 μM compound; for MOR agonist activity ([35S]GTPγS binding), FLNA-Binding Compound as Agonist 1 μM + BFNA: 1 μM compound + 1 μM β-funaltrexamine; for % DAMGO + BFNA: 1 μM compound + BFNA relative to DAMGO + BFNA; for % DAMGO (1 μM): 1 μM compound relative to DAMGO
In short: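 Striatal membranes (200 μg) were preincubated 5 min at 30 °C in HEPES pH 7.5 with 100 mM NaCl, 1 mM MgCl2 and 0.5 nM [35S]GTPγS, then 5 min more with 0.1–10 μM compound. Gαo was immunoprecipitated and bound radioactivity counted by scintillation.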

[2] = target: FLNA pentapeptide of SEQ ID NO: 1 (Bn-VAKGL) (Homo sapiens, UniProt P21333); experiment: FITC-NLX-based FLNA screening assay (inhibition of FITC-naloxone binding to Bn-VAKGL on streptavidin plates); details: 10 nM FITC-NLX
[3] = FLNA-binding compound 0.01 μM, read-out: Percent Binding Inhibition
[4] = FLNA-binding compound 0.1 μM, read-out: Percent Binding Inhibition
[5] = FLNA-binding compound 1 μM, read-out: Percent Binding Inhibition

| SMILES | MOR agonist activity ([35S]GTPγS binding), FLNA-Binding Compound as Agonist 0.1 μM [1] | % DAMGO (0.1 μM) [1] | MOR agonist activity ([35S]GTPγS binding), FLNA-Binding Compound as Agonist 1 μM [1] | MOR agonist activity ([35S]GTPγS binding), FLNA-Binding Compound as Agonist 1 μM + BFNA [1] | % DAMGO + BFNA [1] | % DAMGO (1 μM) [1] | inhibition at 0.01 µM [2, 3] | inhibition at 0.1 µM [2, 4] | inhibition at 1 µM [2, 5] | inhibition at 0.01 µM ([2]; read-out: Percent Binding Inhibition, FLNA-binding compound 0.01 μM) | inhibition at 0.1 µM ([2]; read-out: Percent Binding Inhibition, FLNA-binding compound 0.1 μM) | inhibition at 1 µM ([2]; read-out: Percent Binding Inhibition, FLNA-binding compound 1 μM) |
| --- | --- | --- | --- | --- | --- | --- | --- | --- | --- | --- | --- | --- |
| CC1CN(CC(O)COC2CCCCC2)CC(C)O1 (stereo not drawn) [Compound A0017] | 161.9% | 96.9% | 246.0% | 65.2% | 187.9% | 100.4% | 29.8% | 38.6% | 44% | – | – | – |
| CC1CCC(C(C)C)C(OCC(O)CN2CCN(CCc3ccccc3)CC2)C1 (stereo not drawn) [Compound A0020] | 168.6% | 100.9% | 217.4% | 67.4% | 194.2% | 88.7% | 37.8% | 38.8% | 45.8% | – | – | – |
| CC1CCCC(OCC(O)CN2CC(C)OC(C)C2)C1 (stereo not drawn) [Compound A0021] | 133.3% | 79.8% | 275.3% | 12.1% | 34.9% | 112.4% | 36.8% | 43.4% | 49.5% | – | – | – |
| CC1CCC(C)C(OCC(O)CN2CC(C)OC(C)C2)C1 (stereo not drawn) [Compound A0022] | 154.1% | 90.0% | 216.0% | 28.0% | 53.7% | 80.9% | 41.9% | 49.7% | 56.8% | – | – | – |
| CC1CN(CC(O)COc2ccccc2)CC(C)O1 (stereo not drawn) [Compound A0025] | 58.6% | 33.2% | 138.7% | 52.2% | 198.5% | 54.5% | – | – | – | 39% | 49.8% | 53.2% |
| CC1CCC(C(C)C)C(OCC(O)CN2CCN(CCCN3CCOCC3)CC2)C1 (stereo not drawn) [Compound A0026] | 140.7% | 79.7% | 179.8% | 120.8% | 459.3% | 70.7% | 36.4% | 42.4% | 49.2% | – | – | – |
| Cc1ccc(C(C)C)c(OCC(O)CN2CC(C)OC(C)C2)c1 (stereo not drawn) [Compound A0028] | 143.6% | 81.3% | 187.7% | 116.7% | 443.7% | 73.8% | 39.5% | 43.8% | 50.5% | – | – | – |
